# Test results reported in patent US9758529B2, “Fused dihydro-4H-pyrazolo[5,1-C][1,4]oxazinyl compounds and analogs for treating CNS disorders” (Sunovion Pharmaceuticals Inc., priority 2015, dated 2017).
# Counter-ions that a name gives are not always drawn.
# Tested on: mice
# Assay: Neuropharmacological Assay (SmartCube)
# Type: in vivo
# Details: i.p. 15 min before behavioral test; 3 doses, most efficacious dose(s) presented
# Excerpt: Neurosci. […] As reported in Roberds, because psychiatric diseases generally result from disorders of cell-cell communication or circuitry, intact systems are useful in detecting improvement in disease-relevant endpoints. These endpoints are typically behavioral in nature, often requiring human observation and interpretation. To facilitate testing of multiple compounds for behavioral effects relevant to psychiatric disease, PsychoGenics, Inc. (Tarrytown, N.Y., “PGI”) developed SmartCube™, an automated system in which behaviors of compound-treated mice are captured by digital video and analyzed with computer algorithms. […] PGI Analytical Systems uses data from SmartCube™ to compare the behavioral signature of a test compound to a database of behavioral signatures obtained using a large set of diverse reference compounds. (The composition of the database as well as validation of the method is further described in Roberds). In this way, the neuropharmacological effects of a test compound can be predicted by similarity to major classes of compounds, such as antipsychotics, anxiolytics and antidepressants.
# The SmartCube™ system produces an activity signature indicating the probability that the activity of the test compound at the administered dose matches a given class of neuropharmacological agents. (See, e.g., Roberds, FIGS. 2 and 3). The test compound is simultaneously compared against multiple classes of agents; thus, a separate probability is generated for each behavioral effect measured (e.g., anxiolytic activity, analgesic activity, etc.). In Table 2 and 2B, these probabilities are reported for each behavioral effect measured as follows:
# where LOQ is the limit of quantification.
# Provided compounds were dissolved in a mixture of Pharmasolve™ (N-methyl-2-pyrrolidone), polyethylene glycol and propylene glycol, and were injected i.p. 15 min. before the behavioral test. For each compound, injections were administered at 3 different doses. For each behavioral effect measured, results for the most efficacious dose(s) are presented.
SMILES,AD: ADHD (probability of class match),AG: analgesic (probability of class match),AX: anxiolytic (probability of class match),CE: cognitive enhancer (probability of class match),DP: anti-depressant (probability of class match),HA: hallucinogen (probability of class match),MS: mood stabilizer (probability of class match),PS: anti-psychotic (probability of class match),SD: sedative hypnotic (probability of class match),UN: uncharacterized CNS activity (probability of class match),XG: anxiogenic (probability of class match)
"c1ccc2c3n(nc2c1)CCOC3[C@@H]1CCCN1 (stereo partly drawn) [Compound 13, 1-((S)-pyrrolidin-2-yl)-3,4-dihydro-1H-[1,4]oxazino[4,3-b]indazole hydrochloride]",+ (LOQ≦ + <5%),+++ (25%≦ +++ <50%),++ (5%≦ ++ <25%),++ (5%≦ ++ <25%),++ (5%≦ ++ <25%),+ (LOQ≦ + <5%),++ (5%≦ ++ <25%),+ (LOQ≦ + <5%),+ (LOQ≦ + <5%),+ (LOQ≦ + <5%),+ (LOQ≦ + <5%)
"CN1CCC[C@H]1C1OCCn2nc3ccccc3c21 (stereo partly drawn) [Compound 14, 1-((S)-1-methylpyrrolidin-2-yl)-3,4-dihydro-1H-[1,4]oxazino[4,3-b]indazole hydrochloride]",+ (LOQ≦ + <5%),+ (LOQ≦ + <5%),+++ (25%≦ +++ <50%),++ (5%≦ ++ <25%),++ (5%≦ ++ <25%),+ (LOQ≦ + <5%),+ (LOQ≦ + <5%),++ (5%≦ ++ <25%),+ (LOQ≦ + <5%),+ (LOQ≦ + <5%),+ (LOQ≦ + <5%)
"NCC1OCCn2nc3ccccc3c21 (stereo not shown) [Compound 15, (3,4-dihydro-1H-[1,4]oxazino[4,3-b]indazol-1-yl)methanamine]",++++ (50%≦ ++++),++ (5%≦ ++ <25%),+ (LOQ≦ + <5%),+ (LOQ≦ + <5%),++ (5%≦ ++ <25%),+ (LOQ≦ + <5%),+ (LOQ≦ + <5%),+ (LOQ≦ + <5%),+ (LOQ≦ + <5%),+ (LOQ≦ + <5%),+ (LOQ≦ + <5%)
"c1ccc2c3n(nc2c1)CCOC3CNC1CCC1 (stereo not shown) [Compound 16, N-((3,4-dihydro-1H-[1,4]oxazino[4,3-b]indazol-1-yl)methyl) cyclobutanamine]",+ (LOQ≦ + <5%),+ (LOQ≦ + <5%),+ (LOQ≦ + <5%),+ (LOQ≦ + <5%),+ (LOQ≦ + <5%),+ (LOQ≦ + <5%),+ (LOQ≦ + <5%),+ (LOQ≦ + <5%),+ (LOQ≦ + <5%),+ (LOQ≦ + <5%),+ (LOQ≦ + <5%)
"CC(C)NCC1OCCn2nc3ccccc3c21 (stereo not shown) [Compound 17, N-((3,4-dihydro-1H-[1,4]oxazino[4,3-b]indazol-1-yl)methyl)propan-2-amine]",+ (LOQ≦ + <5%),+ (LOQ≦ + <5%),++ (5%≦ ++ <25%),+ (LOQ≦ + <5%),++ (5%≦ ++ <25%),+ (LOQ≦ + <5%),+ (LOQ≦ + <5%),+ (LOQ≦ + <5%),+ (LOQ≦ + <5%),++ (5%≦ ++ <25%),+ (LOQ≦ + <5%)
"CCNCC1OCCn2nc3ccccc3c21.Cl (stereo not shown) [Compound 18, N-((3,4-dihydro-1H-[1,4]oxazino[4,3-b]indazol-1-yl)methyl) ethanamine hydrogen chloride salt]",+ (LOQ≦ + <5%),++ (5%≦ ++ <25%),++ (5%≦ ++ <25%),++ (5%≦ ++ <25%),+ (LOQ≦ + <5%),+ (LOQ≦ + <5%),+ (LOQ≦ + <5%),++ (5%≦ ++ <25%),+ (LOQ≦ + <5%),+ (LOQ≦ + <5%),+ (LOQ≦ + <5%)
"c1ccc2c3n(nc2c1)CCOC3CN1CCCC1 (stereo not shown) [Compound 19, 1-(pyrrolidin-1-ylmethyl)-3,4-dihydro-1H-[1,4]oxazino[4,3-b]indazole hydrogen chloride salt]",+ (LOQ≦ + <5%),++ (5%≦ ++ <25%),++ (5%≦ ++ <25%),++ (5%≦ ++ <25%),+++ (25%≦ +++ <50%),+ (LOQ≦ + <5%),+ (LOQ≦ + <5%),+ (LOQ≦ + <5%),+ (LOQ≦ + <5%),+ (LOQ≦ + <5%),+ (LOQ≦ + <5%)
"c1ccc2c3n(nc2c1)CCOC3CN1CCOCC1 (stereo not shown) [Compound 20, 1-(morpholinomethyl)-3,4-dihydro-1H-[1,4]oxazino[4,3-b]indazole hydrogen chloride salt]",+ (LOQ≦ + <5%),++ (5%≦ ++ <25%),+++ (25%≦ +++ <50%),++ (5%≦ ++ <25%),++ (5%≦ ++ <25%),+ (LOQ≦ + <5%),+ (LOQ≦ + <5%),++ (5%≦ ++ <25%),+ (LOQ≦ + <5%),+ (LOQ≦ + <5%),+ (LOQ≦ + <5%)
"c1ccc2c3n(nc2c1)CCOC3CNC1CC1 (stereo not shown) [Compound 21, N-((3,4-dihydro-1H-[1,4]oxazino[4,3-b]indazol-1-yl)methyl)cyclopropan amine hydrogen chloride salt]",+ (LOQ≦ + <5%),++ (5%≦ ++ <25%),++ (5%≦ ++ <25%),+ (LOQ≦ + <5%),++ (5%≦ ++ <25%),+ (LOQ≦ + <5%),+ (LOQ≦ + <5%),++ (5%≦ ++ <25%),+ (LOQ≦ + <5%),+ (LOQ≦ + <5%),+ (LOQ≦ + <5%)
"CN(CC1OCCn2nc3ccccc3c21)C1CC1 (stereo not shown) [Compound 22, N-((3,4-dihydro-1H-[1,4]oxazino[4,3-b]indazol-1-yl)methyl)-N-methylcyclopropanamine hydrogen chloride salt]",++ (5%≦ ++ <25%),+ (LOQ≦ + <5%),++ (5%≦ ++ <25%),+ (LOQ≦ + <5%),++++ (50%≦ ++++),++ (5%≦ ++ <25%),+ (LOQ≦ + <5%),+ (LOQ≦ + <5%),+ (LOQ≦ + <5%),++ (5%≦ ++ <25%),+ (LOQ≦ + <5%)
"CN1CCC2(C1)OCCn1nc3ccccc3c12.Cl (stereo not shown) [Compound 23, 1′-methyl-3,4-dihydrospiro[[1,4]oxazino[4,3-b]indazole-1,3′-pyrrolidin]-1′-ium chloride]",+ (LOQ≦ + <5%),++ (5%≦ ++ <25%),++++ (50%≦ ++++),++ (5%≦ ++ <25%),++ (5%≦ ++ <25%),+ (LOQ≦ + <5%),+ (LOQ≦ + <5%),+ (LOQ≦ + <5%),+ (LOQ≦ + <5%),+ (LOQ≦ + <5%),+ (LOQ≦ + <5%)
